The record followed here is patent US20220220106A1, “QUINOLINE COMPOUNDS AND PHARMACEUTICAL COMPOSITIONS AND USES THEREOF” (Academy of Military Medical Sciences, priority 2019, published 2022).

Format in all cases: cell-based
Data set [1] has as its system Enterovirus 71 (EV71) H strain. Kind of data set: In vitro anti-EV71 activity (antiviral activity in RD cells, CellTiter-Glo). Conditions: Enterovirus A, 96 h; EV71 H strain, RD cells, 4 days, CellTiter-Glo; read-out: IC50. Summed up:
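RD cells infected with 100TCID50 EV71 in DMEM+2% FBS, with compound in 10-point three-fold dilutions, cultured 4 days at 37° C. Cell viability by CellTiter-Glo luminescence; inhibition rate relative to cell control fitted to S-curve for IC50. TD50 derived likewise; SI=TD50/IC50.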
In general terms: Cellular ATP, detected with luciferase, serves as a proxy for viable cell number.

The subject of another data set is RD cells. Kind of data set: Detection of cytotoxicity in RD cells (CellTiter-Glo). Conditions: 4 days, CellTiter-Glo, median toxic dose. The method, boiled down: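 RD cells (1*10^5/mL) cultured 4 days at 37 °C with 10 compound concentrations from 3-fold dilution of a 400 μM pretreatment solution, final being 0.5 times that. Viability by CellTiter-Glo luminescence versus cell control; TD50 from S-curve fit; SI=TD50/IC50.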

Another data set concerns the target T1, mTORC1 (Homo sapiens, UniProt P42345).
T1 construct: endogenous in cells; host or cells: RD cells
Kind of data set: Western blot, phosphorylation of Thr389 of p70S6K1 in RD cells (mTORC1 inhibition). The note with it: 20 μM, 2 hours, Western blot (FIG. 1). As to the method: (§1) In order to test the inhibitory activity of the synthesized compounds on the two mTOR complexes, the inhibitory activity experiments of mTORC1 and mTORC2 were carried out. Since mTORC1 and mTORC2 exerted their function by activating the phosphorylation of downstream substrates, the inhibitory activity of the compounds on mTORC1 and mTORC2 could be determined by detecting the phosphorylation levels of the Thr389 site of mTORC1 downstream substrate p70S6K1 and the Ser473 site of mTORC2 downstream substrate Akt.
(§2) Pretreatment of Compound:
(§3) (1) RD cells were cultured in DMEM medium containing 10% FBS and 1×PS (penicillin and streptomycin were at concentrations 100 IU and 100 μg/mL, respectively) at 37° C. and 5% CO2.
(§4) (2) The RD cells (5×10^5 cells/2 mL medium) were inoculated into a 6-well plate and incubated at 37° C. and 5% CO2 for 24 hours.
(§5) (3) The cells were washed once with PBS, and the cells were cultured in serum-free medium without nutrients overnight.
(§6) (4) Formulation of compounds: […]
(§7) Preparation of insulin medium: Insulin was diluted in DMEM medium containing 10% FBS and 1×PS so that the final concentration of insulin was 167 nM.
(§8) Pretreatment of compound to be tested: The compound was dissolved in DMSO so that the concentration of the test compound was 20 mM, and the compound was diluted in 167 nM insulin medium to reach a concentration of 20 μM.
(§9) Preparation of rapamycin solution: Rapamycin was dissolved in DMSO to a concentration of 10 mM, and the rapamycin was diluted in 167 nM insulin medium to reach a concentration of 20 μM.
(§10) (5) The serum-free medium in each well was removed.
(§11) (6) 2 mL of complete medium containing DMSO was added to each well as a control carrier. The final concentration of DMSO was 0.2%.
(§12) (7) 2 mL of 20 μM rapamycin solution and 20 μM the compound to be tested were added to the designated wells, respectively. The final concentration of DMSO was 0.2%.
(§13) (8) The cells were incubated for 2 hours at 37° C. and 5% CO2.
(§14) Protein extraction and concentration determination:
(§15) (1) The cells were washed once with refrigerated PBS, and then the PBS was discarded.
(§16) (2) 150 μL of cell extraction buffer (RIPA, […], catalog number: C1053) was transferred into each well to lyse the cells, and then the resulting cell solution were incubated on ice for 30 minutes.
(§17) (3) Centrifugation was performed at 14000 rpm (13000× g) for 30 minutes at 4° C.
(§18) (4) The supernatant was transferred into a new eppendorf tube, and the cell lysate was stored at −80° C. before testing.
(§19) (5) The protein concentration was determined by BCA method.
(§20) Preparation of Buffer Solutions:
(§21) (1) 100× Protease inhibitor (Beyotime, catalog number: P1005): 1 mL of redistilled water was added to the protease inhibitor and stirred gently until the solid was completely dissolved.
(§22) (2) Lysis Buffer: […] of 100× protease inhibitor and 2× phosphatase inhibitor Cocktails PhosSTOP (Beyotime, catalog number: P1082) were added to 100 mL of the cell extract, and stirred gently until it was completely dissolved.
(§23) (3) Electrophoresis Running Buffer:
(§24) 10×MOPS buffer: 52.33 g of MOPS, 30.29 g of Tris base, 10 mL of 0.5 mol/L EDTA (pH 8.5) and 5 g of SDS was dissolved in 400 mL of redistilled water, stirred to dissolve, and the pH was adjusted to 7.5, then redistilled water was added again to reach a volume of 500 mL; 1×MOPS: 100 mL of 10×MOPS was diluted with redistilled water to 1000 mL.
(§25) (4) 1× Transfer Buffer: […] of 10× transfer buffer (144 g of glucine, 30.3 g of trisbase, and distilled water were mixed to reach a volume of 1 L) and 400 mL of methanol were dissolved in 1500 mL of redistilled water, and then the redistilled water was added to reach a volume of 2000 mL. […]

In a further data set the target is T2, mTORC2 (Homo sapiens, UniProt P42345).
T2 construct: endogenous in cells; host or cells: RD cells
Kind of data set: Western blot, phosphorylation of Ser473 of Akt in RD cells (mTORC2 inhibition). The note with it: 20 μM, 2 hours, Western blot (FIG. 1). As to the method: as §1, §2, §3, §4, §5, §6, §7, §8, §9, §10, §11, §12, §13, §14, §15, §16, §17, §18, §19, §20, §21, §22, §23, §24, §25

Regarding `CC(C)C(=O)Nc1ccc(-c2ccc3ncc4ccc(=O)n(-c5cccc(C(F)(F)F)c5)c4c3c2)cn1` [HTL-7-07, 9-[3-(2-isobutyrylamino)pyridyl]-2-oxo-1-[3-(trifluoromethyl)phenyl]-1,2-dihydrobenzo[h][1,6]naphthyridine], the IC50 – broadly, the concentration at which inhibition is half-maximal – in data set [1] amounted to 0.38 ± 0.39 µM. For the same molecule, the TD50 in the data set on RD cells was 0.46 ± 0.03 µM. The “p70 phosphorylation expression level” value at mTORC1 was “significantly down-regulate”. Besides, the “phosphorylation expression level of Akt” value at mTORC2 was “significantly down-regulate”.
